The term mortality denotes the share of the test organisms that died.

Structures are written as SMILES. Read-outs that look alike come from different tables or passages of the source.

Assay [1] deals with Beet Armyworm (Spodoptera exigua) ("BAW"). Nature of the assay: Bioassay on beet armyworm (BAW), 128-well diet tray assay. The format is in vivo. The settings on record: for pest or weed control at 50 µg/cm2: activity rating class, read-out: BAW (Biological Results, Insect species); for mortality at 50 µg/cm2: 168 h, 50 μg/cm^2 on artificial diet, second instar BAW larvae, 25° C., five to seven days, average of eight wells, read-out: BAW % Control (or Mortality) rating. The method, then: (§1) Certain molecules disclosed in this document were tested against BAW and CEW using procedures described in the following examples. In the reporting of the results, the “BAW & CL Rating Table” was used (See Table Section). BIOASSAYS ON BAW
Bioassays on BAW were conducted using a 128-well diet tray assay. one to five second instar BAW larvae were placed in each well (3 mL) of the diet tray that had been previously filled with 1 mL of artificial diet to which 50 μg/cm^2 of the test compound (dissolved in 50 μL of 90:10 acetone-water mixture) had been applied (to each of eight wells) and then allowed to dry. Trays were covered with a clear self-adhesive cover and held at 25° C., 14:10 light-dark for five to seven days. Percent mortality was recorded for the larvae in each well; activity in the eight wells was then averaged. The results are indicated in the table entitled “Table ABC: Biological Results” (See Table Section).

Assay [2] has as its system Cabbage Looper (Trichoplusia ni) ("CL"). In words: Bioassay on cabbage looper (CL), 128-well diet tray assay. The assay is classed as in vivo. The settings on record: for pest or weed control at 50 µg/cm2: activity rating class, read-out: CL (Biological Results, Insect species); for mortality at 50 µg/cm2: 168 h, 50 μg/cm^2 on artificial diet, second instar CL larvae, 25° C., five to seven days, average of eight wells, read-out: CL % Control (or Mortality) rating. As to the method: as §1
Bioassays on CL were conducted using a 128-well diet tray assay. one to five second instar CL larvae were placed in each well (3 mL) of the diet tray that had been previously filled with 1 mL of artificial diet to which 50 μg/cm^2 of the test compound (dissolved in 50 μL of 90:10 acetone-water mixture) had been applied (to each of eight wells) and then allowed to dry. Trays were covered with a clear self-adhesive cover and held at 25° C., 14:10 light-dark for five to seven days. Percent mortality was recorded for the larvae in each well; activity in the eight wells was then averaged. The results are indicated in the table entitled “Table ABC: Biological Results” (See Table Section).

In the case of `CC(C)c1cc(F)ccc1N1C(=O)CS/C1=N\C(=O)NCc1cccc(-c2ncn(-c3ccc(OC(F)(F)F)cc3)n2)c1` [FB33, (Z)-1-(3-(4-fluoro-2-isopropylphenyl)-4-oxothiazolidin-2-ylidene)-3-(3-(1-(4-(trifluoromethoxy)phenyl)-1H-1,2,4-triazol-3-yl)benzyl)urea], the pest or weed control at 50 µg/cm2 in assay [1] (Table ABC (FB)) and in assay [2] (Table ABC (FB)) was 50 to 100% in each case.
As for `CCc1ccccc1N1C(=O)CS/C1=N\C(=O)NCc1ccc(-c2ncn(-c3ccc(OC(F)(F)F)cc3)n2)cc1` [P2, P532, (Z)-1-(3-(2-ethylphenyl)-4-oxothiazolidin-2-ylidene)-3-(4-(1-(4-(trifluoromethoxy)phenyl)-1H-1,2,4-triazol-3-yl)benzyl)urea], the mortality at 50 µg/cm2 in assay [1] and in assay [2] was 50 to 100% each time.
Consider `CC(C)c1ccccc1NC(=S)NC(=O)NCc1cccc(-c2ncn(-c3ccc(OC(F)(F)F)cc3)n2)c1` [FB22, 1-[(2-isopropylphenyl)carbamothioyl]-3-[[3-[1-[4-(trifluoromethoxy)phenyl]-1H-1,2,4-triazol-3-yl]phenyl]methyl]urea], for which the pest or weed control at 50 µg/cm2 in assay [1] (Table ABC (FB)) and in assay [2] (Table ABC (FB)) was 50 to 100% each time.
As for `CCc1ccccc1N1C(=O)CS/C1=N\C(=O)NCCCc1ccc(-c2ncn(-c3ccc(OC(F)(F)F)cc3)n2)cc1` [P93, P510, (Z)-1-(3-(2-ethylphenyl)-4-oxothiazolidin-2-ylidene)-3-(3-(4-(1-(4-(trifluoromethoxy)phenyl)-1H-1,2,4-triazol-3-yl)phenyl)propyl)urea], the mortality at 50 µg/cm2 in assay [1] and in assay [2] was 50 to 100% in each case.
Regarding `Cc1ccc(NC(=S)NC(=O)NCc2cccc(-c3ncn(-c4ccc(OC(F)(F)F)cc4)n3)c2)c(C(C)C)c1` [FB23, 1-[(2-isopropyl-4-methyl-phenyl)carbamothioyl]-3-[[3-[1-[4-(trifluoromethoxy)phenyl]-1H-1,2,4-triazol-3-yl]phenyl]methyl]urea], the pest or weed control at 50 µg/cm2 in assay [1] (Table ABC (FB)) and in assay [2] (Table ABC (FB)) was 50 to 100% throughout.
Turning to `CCCc1ccc(C)cc1N1C(=O)CS/C1=N\C(=O)NCCc1cccc(-c2ncn(-c3ccc(OC(F)(F)F)cc3)n2)c1` [P80, (Z)-1-(3-(5-methyl-2-propylphenyl)-4-oxothiazolidin-2-ylidene)-3-(3-(1-(4-(trifluoromethoxy)phenyl)-1H-1,2,4-triazol-3-yl)phenethyl)urea], the mortality at 50 µg/cm2 in assay [1] and in assay [2] was 50 to 100% in each case.
Consider `Cc1ccc(NC(=S)NC(=O)NCCCCc2ccc(-c3ncn(-c4ccc(OC(F)(F)F)cc4)n3)cc2)c(C(C)C)c1` [PC154, 1-[(2-isopropyl-4-methyl-phenyl)carbamothioyl]-3-[4-[4-[1-[4-(trifluoromethoxy)phenyl]-1H-1,2,4-triazol-3-yl]phenyl]butyl]urea], for which the pest or weed control at 50 µg/cm2 in assay [1] (Table ABC (PC)) and in assay [2] (Table ABC (PC)) was 50 to 100% each time.
On to `CCn1s/c(=N\C(=O)NCCc2ccc(-c3ncn(-c4ccc(OC(F)(F)F)cc4)n3)cc2)n(-c2ccc(F)cc2C(C)C)c1=O` [FB13, (Z)-1-(2-ethyl-4-(4-fluoro-2-isopropylphenyl)-3-oxo-1,2,4-thiadiazolidin-5-ylidene)-3-(4-(1-(4-(trifluoromethoxy)phenyl)-1H-1,2,4-triazol-3-yl)phenethyl)urea], for which the pest or weed control at 50 µg/cm2 fell in the range of 0 to 50% in assay [1] (Table ABC (FB)) and 50 to 100% in assay [2] (Table ABC (FB)).
With `CCc1ccccc1NC(=S)NC(=O)NCCCCc1cccc(-c2ncn(-c3ccc(OC(F)(F)F)cc3)n2)c1` [PC171, 1-[(2-ethylphenyl)carbamothioyl]-3-[4-[3-[1-[4-(trifluoromethoxy)phenyl]-1H-1,2,4-triazol-3-yl]phenyl]butyl]urea], the pest or weed control at 50 µg/cm2 in assay [1] (Table ABC (PC)) was 0 to 50%; in assay [2] (Table ABC (PC)), 50 to 100%.
The like results for `CCc1cccc(C)c1NC(=S)NC(=O)NCCCCc1cccc(-c2ncn(-c3ccc(OC(F)(F)F)cc3)n2)c1` [PC179, 1-[(2-ethyl-6-methyl-phenyl)carbamothioyl]-3-[4-[3-[1-[4-(trifluoromethoxy)phenyl]-1H-1,2,4-triazol-3-yl]phenyl]butyl]urea] were, in that order, 0 to 50% and 50 to 100%.
On to `CC(C)c1ccc(Cl)cc1NC(=S)NC(=O)NCc1cccc(-c2ncn(-c3ccc(OC(F)(F)F)cc3)n2)c1` [FB26, 1-[(5-chloro-2-isopropyl-phenyl)carbamothioyl]-3-[[3-[1-[4-(trifluoromethoxy)phenyl]-1H-1,2,4-triazol-3-yl]phenyl]methyl]urea], for which the pest or weed control at 50 µg/cm2 in assay [1] (Table ABC (FB)) and in assay [2] (Table ABC (FB)) was 50 to 100% throughout.
Consider `CCc1cccc(C)c1N1C(=O)CS/C1=N\C(=O)NCCc1cccc(-c2ncn(-c3ccc(OC(F)(F)F)cc3)n2)c1` [P83, (Z)-1-(3-(2-ethyl-6-methylphenyl)-4-oxothiazolidin-2-ylidene)-3-(3-(1-(4-(trifluoromethoxy)phenyl)-1H-1,2,4-triazol-3-yl)phenethyl)urea], for which the mortality at 50 µg/cm2 in assay [1] and in assay [2] was 50 to 100% each time.
Turning to `CC(C)c1ccccc1NC(=S)NC(=O)NCCCc1cccc(-c2ncn(-c3ccc(OC(F)(F)F)cc3)n2)c1` [PC120, 1-[(2-isopropylphenyl)carbamothioyl]-3-[3-[3-[1-[4-(trifluoromethoxy)phenyl]-1H-1,2,4-triazol-3-yl]phenyl]propyl]urea], the pest or weed control at 50 µg/cm2 in assay [1] (Table ABC (PC)) and in assay [2] (Table ABC (PC)) was 50 to 100% in each case.
Turning to `CC(C)c1cc(F)ccc1N1C(=O)CS/C1=N\C(=O)NCCCCc1cccc(-c2ncn(-c3ccc(OC(F)(F)F)cc3)n2)c1` [P181], the mortality at 50 µg/cm2 in assay [1] and in assay [2] was 50 to 100% in each case.
As for `Cc1ccc(C(C)C)c(NC(=S)NC(=O)NCCCCc2ccc(-c3ncn(-c4ccc(OC(F)(F)F)cc4)n3)cc2)c1` [PC150, 1-[(2-isopropyl-5-methyl-phenyl)carbamothioyl]-3-[4-[4-[1-[4-(trifluoromethoxy)phenyl]-1H-1,2,4-triazol-3-yl]phenyl]butyl]urea], the pest or weed control at 50 µg/cm2 in assay [1] (Table ABC (PC)) and in assay [2] (Table ABC (PC)) was 50 to 100% each time.
For `COc1ccc(N2C(=O)CS/C2=N\C(=O)NCc2cccc(-c3ncn(-c4ccc(OC(F)(F)F)cc4)n3)c2)c(C)c1` [FB28, (Z)-1-(3-(4-methoxy-2-methylphenyl)-4-oxothiazolidin-2-ylidene)-3-(3-(1-(4-(trifluoromethoxy)phenyl)-1H-1,2,4-triazol-3-yl)benzyl)urea], the pest or weed control at 50 µg/cm2 in assay [1] (Table ABC (FB)) and in assay [2] (Table ABC (FB)) was 50 to 100% in each case.
As for `CC(C)c1ccc(Cl)cc1NC(=S)NC(=O)NCCCCc1cccc(-c2ncn(-c3ccc(OC(F)(F)F)cc3)n2)c1` [FB37, 1-[(5-chloro-2-isopropyl-phenyl)carbamothioyl]-3-[4-[3-[1-[4-(trifluoromethoxy)phenyl]-1H-1,2,4-triazol-3-yl]phenyl]butyl]urea], the pest or weed control at 50 µg/cm2 in assay [1] (Table ABC (FB)) and in assay [2] (Table ABC (FB)) was 0 to 50% throughout.
Consider `CC(C)c1ccccc1NC(=S)NC(=O)NCc1ccc(-c2ncn(-c3ccc(OC(F)(F)C(F)(F)F)cc3)n2)cc1` [F15, N-(4-{1-[4-(pentafluoroethoxy)phenyl]-1H-1,2,4-triazol-3-yl}benzyl)-N′-[2-(propan-2-yl)phenyl]dicarbonimidothioic diamide], for which the mortality at 50 µg/cm2 in assay [1] and in assay [2] was 50 to 100% each time.
As for `Cc1ccc(C(C)C)c(N2/C(=N/C(=O)NCCc3ccc(-c4ncn(-c5ccc(OC(F)(F)F)cc5)n4)cc3)SCC2C)c1` (stereo not drawn) [P58, (Z)-1-(3-(2-isopropyl-5-methylphenyl)-4-methylthiazolidin-2-ylidene)-3-(4-(1-(4-(trifluoromethoxy)phenyl)-1H-1,2,4-triazol-3-yl)phenethyl)urea], the mortality at 50 µg/cm2 in assay [1] and in assay [2] was 50 to 100% throughout.
With `CC(C)c1cc(F)ccc1NC(=S)NC(=O)NCc1ccc(-c2ncn(-c3ccc(OC(F)(F)F)cc3)n2)cc1` [PC3, 1-[(4-fluoro-2-isopropyl-phenyl)carbamothioyl]-3-[[4-[1-[4-(trifluoromethoxy)phenyl]-1H-1,2,4-triazol-3-yl]phenyl]methyl]urea], the pest or weed control at 50 µg/cm2 in assay [1] (Table ABC (PC)) and in assay [2] (Table ABC (PC)) was 50 to 100% in each case.
In the case of `CC(C)c1cc(F)ccc1NC(=S)NC(=O)NCc1cccc(-c2ncn(-c3ccc(OC(F)(F)F)cc3)n2)c1` [FB24, 1-[(4-fluoro-2-isopropyl-phenyl)carbamothioyl]-3-[[3-[1-[4-(trifluoromethoxy)phenyl]-1H-1,2,4-triazol-3-yl]phenyl]methyl]urea], the pest or weed control at 50 µg/cm2 in assay [1] (Table ABC (FB)) and in assay [2] (Table ABC (FB)) was 50 to 100% each time.

The values are drawn from patent publication US9783532B2, “Molecules having certain pesticidal utilities, and intermediates, compositions, and processes related thereto” (Dow AgroSciences LLC, priority 2013, dated 2017).
